Experimental data published in patent US11395847B2, “Acylated GLP-1/GLP-2 dual agonists” (Zealand Pharma A/S, priority 2016, dated 2022).
Where two headings read alike, the source gives them in different places. Where a SMILES comes first, the peptide text is derived from it.

Key:
[1] = test system: Normal chow-fed C57BL/6J male mice; test: Effect on fasting glucose and intestinal weight in normal mice; type: in vivo; conditions: for Small intestinal wet weight: 100 nmol/kg s.c. once daily for 4 days, sacrificed 24 hours after final dosing; for Fasting blood glucose: 100 nmol/kg s.c., day 0 after a single injection, fasted mice
Experimental: Normal chow-fed C57BL/6J male mice were used. The mice were kept in standard housing conditions, light-, temperature-, and humidity-controlled room (12:12 h light-dark cycle, with lights on at 06.00-18.00 h; 20-22° C.; 50-80% relative humidity). Each dosing group consisted of 6 animals. Mice were dosed once daily with 100 nmol/kg with the test compounds or vehicle for 4 days via subcutaneous administration.
On day 0 mice were fasted and blood glucose levels measured after a single s.c. injection with peptides. Animals were sacrificed 24 hours after final dosing on day 3, and small intestinal wet weights were measured.

human GLP-1 receptor = molecular target: T1, human GLP-1 receptor (Homo sapiens, UniProt P43220); test: GLP-1 receptor potency assay (cAMP ALPHASCREEN, HEK293 cells stably expressing GLP-1 R); type: cell-based; conditions: cAMP response, HEK293 cells expressing human GLP-1 R
T1 construct: expressed in transfected cells
Summary of the method: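 Clonal HEK293 line stably transfected with human GLP-1R (G418-selected) was treated with test compounds and the cAMP response quantified by ALPHASCREEN. Signals were normalized to positive control and vehicle, with EC50 and maximal response taken from concentration-response curves.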

human GLP-2 receptor = molecular target: T2, human GLP-2 receptor (Homo sapiens, UniProt O95838, D470N); test: GLP-2 receptor potency assay (cAMP ALPHASCREEN, HEK293 cells stably expressing GLP-2 R); type: cell-based; conditions: cAMP response, HEK293 cells expressing human GLP-2 R; read-out: EC50 GLP-2
T2 construct: expressed in transfected cells
T2 sequence (O95838 1-553 D470N): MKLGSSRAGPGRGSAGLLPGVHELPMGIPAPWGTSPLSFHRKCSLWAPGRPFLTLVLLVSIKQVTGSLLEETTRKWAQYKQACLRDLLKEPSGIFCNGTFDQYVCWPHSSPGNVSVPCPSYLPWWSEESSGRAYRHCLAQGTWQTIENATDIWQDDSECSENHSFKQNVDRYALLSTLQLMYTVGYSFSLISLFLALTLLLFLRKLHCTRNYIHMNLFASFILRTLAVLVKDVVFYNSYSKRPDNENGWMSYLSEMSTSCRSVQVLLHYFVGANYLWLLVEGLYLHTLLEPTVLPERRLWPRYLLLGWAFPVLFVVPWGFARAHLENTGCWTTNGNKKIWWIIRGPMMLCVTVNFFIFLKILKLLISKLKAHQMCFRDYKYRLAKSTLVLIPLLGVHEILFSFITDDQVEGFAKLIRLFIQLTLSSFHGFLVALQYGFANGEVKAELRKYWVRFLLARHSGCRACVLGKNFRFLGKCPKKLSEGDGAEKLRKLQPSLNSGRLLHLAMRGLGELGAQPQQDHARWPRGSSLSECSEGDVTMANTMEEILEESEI
Summary of the method: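 HEK293 clones stably transfected with the human GLP-2 receptor, selected with G418, were used. Intracellular cAMP was quantified by AlphaScreen. Responses were normalised to positive and vehicle controls, and EC50 and maximal response were taken from concentration-response curves.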

[2] = Chemical stability (RP-HPLC normalized purity after incubation at 40° C.); type: physicochemical; conditions: 14-day incubation, 0.2 mg/ml, normalized purity (area-%); for pH 6 normalized stability: pH 6, 40° C.; for pH 7 normalized stability: pH 7, 40° C.
Summary of the method: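 Peptide at 0.2 mg/ml final in water adjusted to pH 6, 7, 7.5 or 9, incubated at 40° C for 14 days. Purity measured as main-peak area-% by C18 RP-HPLC (acetonitrile/TFA/water gradient, UV 220 nm) and normalized to T=0 set at 100 for each pH.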

[3] = Solubility assessment (turbidity absorbance at 325 nm); type: physicochemical
Summary of the method: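 Peptide stock at 2 mg/ml in water at pH 2.5 diluted 1:1 into 100 mM acetate (pH 4.0, 5.0), histidine (pH 6.0, 7.0) or phosphate (pH 6.0, 7.0, 7.5) buffer. Absorbance at 280 and 325 nm read at ambient temperature (typically 25 °C), single samples (n=1).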

T1 sequence (P43220 24-463): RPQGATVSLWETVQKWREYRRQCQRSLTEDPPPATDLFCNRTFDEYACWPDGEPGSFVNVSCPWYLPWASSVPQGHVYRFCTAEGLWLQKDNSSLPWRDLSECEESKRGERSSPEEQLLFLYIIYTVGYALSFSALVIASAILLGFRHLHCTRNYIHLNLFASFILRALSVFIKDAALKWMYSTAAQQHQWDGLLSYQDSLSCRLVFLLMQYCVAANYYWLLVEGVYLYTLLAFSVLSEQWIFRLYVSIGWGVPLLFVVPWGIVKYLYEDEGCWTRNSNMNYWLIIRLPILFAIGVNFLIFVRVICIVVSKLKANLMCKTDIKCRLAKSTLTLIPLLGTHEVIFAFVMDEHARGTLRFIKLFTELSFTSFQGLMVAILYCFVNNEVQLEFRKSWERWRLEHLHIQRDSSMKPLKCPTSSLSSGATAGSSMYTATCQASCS

EC50 (human GLP-1 receptor) [nM]	EC50 (human GLP-2 receptor) [nM]	solubility ([3]; 100 mM acetate buffer pH 4.0, ambient temperature, read-out: Solubility Acetate buffer pH 4) [µg/mL]	solubility ([3]; 100 mM acetate buffer pH 5.0, ambient temperature, read-out: Solubility Acetate buffer pH 5) [µg/mL]	solubility ([3]; 100 mM histidine buffer pH 6.0, ambient temperature, read-out: Solubility Histidine buffer pH 6) [µg/mL]	solubility ([3]; 100 mM histidine buffer pH 7.0, ambient temperature, read-out: Solubility Histidine buffer pH 7) [µg/mL]	solubility ([3]; 100 mM phosphate buffer pH 6.0, ambient temperature, read-out: Solubility Phosphate buffer pH 6) [µg/mL]	solubility ([3]; 100 mM phosphate buffer pH 7.0, ambient temperature, read-out: Solubility Phosphate buffer pH 7) [µg/mL]	solubility ([3]; 100 mM phosphate buffer pH 7.5, ambient temperature, read-out: Solubility Phosphate buffer pH 7.5) [µg/mL]	Structure (SMILES)	Small intestinal wet weight [1] [g]	Fasting blood glucose [1] [mM]	pH 6 normalized stability [2]	pH 7 normalized stability [2]
0.31	0.056								CC[C@H](C)[C@H](NC(=O)[C@H](Cc1ccccc1)NC(=O)[C@H](CC(=O)O)NC(=O)[C@H](CCCNC(=N)N)NC(=O)[C@H](C)NC(=O)[C@H](C)NC(=O)[C@H](CCC(N)=O)NC(=O)[C@H](CCCCNC(=O)COCCOCCNC(=O)[C@H](CCCCN)NC(=O)[C@H](CCC(=O)O)NC(=O)[C@H](CCCCN)NC(=O)CC[C@H](NC(=O)CCCCCCCCCCCCCCCCCCC(=O)O)C(=O)O)NC(=O)[C@H](CC(=O)O)NC(=O)[C@H](CC(C)C)NC(=O)[C@@H](NC(=O)[C@@H](NC(=O)[C@H](C)NC(=O)[C@H](CC(C)C)NC(=O)[C@H](CCC(=O)O)NC(=O)[C@H](CO)NC(=O)[C@H](CO)NC(=O)[C@H](Cc1ccccc1)NC(=O)[C@@H](NC(=O)CNC(=O)[C@H](CCC(=O)O)NC(=O)C(C)(C)NC(=O)[C@@H](N)Cc1c[nH]cn1)[C@@H](C)O)[C@@H](C)O)[C@@H](C)CC)C(=O)N[C@@H](C)C(=O)N[C@@H](Cc1c[nH]c2ccccc12)C(=O)N[C@@H](CC(C)C)C(=O)N[C@H](C(=O)N[C@@H](CCC(=O)O)C(=O)N[C@@H](Cc1c[nH]cn1)C(=O)N[C@@H](CCCCN)C(=O)N[C@H](C(=O)N[C@H](C(=O)N[C@@H](CC(=O)O)C(=O)O)[C@@H](C)O)[C@@H](C)CC)[C@@H](C)CC [Compound 50] (HELM PEPTIDE1{H.[Aib].E.G.T.F.S.S.E.L.A.T.I.L.D.K.Q.A.A.R.D.F.I.A.W.L.I.E.H.K.I.T.D}|PEPTIDE2{[O=C(O)CCCCCCCCCCCCCCCCCCC(=O)[*:2]].[gGlu].K.E.K.[O=C(COCCOCCN[*:1])[*:2]]}$PEPTIDE1,PEPTIDE2,16:R3-6:R2$$$V2.0)	1.43	5.57		
		< 1000	< 1000	≥ 1000	≥ 1000	≥ 1000	≥ 1000	≥ 1000	CC[C@H](C)[C@H](NC(=O)[C@H](Cc1ccccc1)NC(=O)[C@H](CC(=O)O)NC(=O)[C@H](CCCNC(=N)N)NC(=O)[C@H](C)NC(=O)[C@H](C)NC(=O)[C@H](CCC(N)=O)NC(=O)[C@H](CCCCNC(=O)CC[C@H](NC(=O)CCCCCCCCCCCCCCCCC(=O)O)C(=O)O)NC(=O)[C@H](CC(=O)O)NC(=O)[C@H](CC(C)C)NC(=O)[C@@H](NC(=O)[C@@H](NC(=O)[C@H](C)NC(=O)[C@H](CC(C)C)NC(=O)[C@H](CCC(=O)O)NC(=O)[C@H](CO)NC(=O)[C@@H](NC(=O)[C@H](Cc1ccccc1)NC(=O)[C@H](CO)NC(=O)CNC(=O)[C@H](CCC(=O)O)NC(=O)C(C)(C)NC(=O)[C@@H](N)Cc1c[nH]cn1)[C@@H](C)O)[C@@H](C)O)[C@@H](C)CC)C(=O)N[C@@H](C)C(=O)N[C@@H](Cc1c[nH]c2ccccc12)C(=O)N[C@@H](CC(C)C)C(=O)N[C@H](C(=O)N[C@@H](CCC(N)=O)C(=O)N[C@@H](Cc1c[nH]cn1)C(=O)N[C@@H](CCCCN)C(=O)N[C@H](C(=O)N[C@H](C(=O)N[C@@H](CC(=O)O)C(=O)O)[C@@H](C)O)[C@@H](C)CC)[C@@H](C)CC [Compound 18] (HELM PEPTIDE1{H.[Aib].E.G.S.F.T.S.E.L.A.T.I.L.D.K.Q.A.A.R.D.F.I.A.W.L.I.Q.H.K.I.T.D}|PEPTIDE2{[O=C(O)CCCCCCCCCCCCCCCCC(=O)[*:2]].[gGlu]}$PEPTIDE1,PEPTIDE2,16:R3-2:R2$$$V2.0)	1.37	5.26	A (>90% normalised stability)	A (>90% normalised stability)
	0.056								CC[C@H](C)[C@H](NC(=O)[C@H](Cc1ccccc1)NC(=O)[C@H](CC(=O)O)NC(=O)[C@H](CCCNC(=N)N)NC(=O)[C@H](C)NC(=O)[C@H](C)NC(=O)[C@H](CCCCNC(=O)CC[C@H](NC(=O)CCCCCCCCCCCCCCCCC(=O)O)C(=O)O)NC(=O)CNC(=O)[C@H](CC(=O)O)NC(=O)[C@H](CC(C)C)NC(=O)[C@@H](NC(=O)[C@@H](NC(=O)[C@H](C)NC(=O)[C@H](CC(C)C)NC(=O)[C@H](CCC(=O)O)NC(=O)[C@H](CO)NC(=O)[C@@H](NC(=O)[C@H](Cc1ccccc1)NC(=O)[C@@H](NC(=O)CNC(=O)[C@H](CCC(=O)O)NC(=O)C(C)(C)NC(=O)[C@@H](N)Cc1c[nH]cn1)[C@@H](C)O)[C@@H](C)O)[C@@H](C)O)[C@@H](C)CC)C(=O)N[C@@H](C)C(=O)N[C@@H](Cc1c[nH]c2ccccc12)C(=O)N[C@@H](CC(C)C)C(=O)N[C@H](C(=O)N[C@@H](CCC(=O)O)C(=O)N[C@@H](Cc1c[nH]cn1)C(=O)N[C@@H](CCCCN)C(=O)N[C@H](C(=O)N[C@H](C(=O)N[C@@H](CC(=O)O)C(=O)O)[C@@H](C)O)[C@@H](C)CC)[C@@H](C)CC [Compound 9] (HELM PEPTIDE1{H.[Aib].E.G.T.F.T.S.E.L.A.T.I.L.D.G.K.A.A.R.D.F.I.A.W.L.I.E.H.K.I.T.D}|PEPTIDE2{[O=C(O)CCCCCCCCCCCCCCCCC(=O)[*:2]].[gGlu]}$PEPTIDE1,PEPTIDE2,17:R3-2:R2$$$V2.0)	1.11	4.98		
									CC[C@H](C)[C@H](NC(=O)[C@H](Cc1ccccc1)NC(=O)[C@H](CC(=O)O)NC(=O)[C@H](CCCNC(=N)N)NC(=O)[C@H](C)NC(=O)[C@H](C)NC(=O)[C@H](CCCCN)NC(=O)[C@H](CCCCNC(=O)CC[C@H](NC(=O)CCCCCCCCCCCCCCCCC(=O)O)C(=O)O)NC(=O)[C@H](CC(=O)O)NC(=O)[C@H](CC(C)C)NC(=O)[C@@H](NC(=O)[C@@H](NC(=O)[C@H](C)NC(=O)[C@H](CC(C)C)NC(=O)[C@H](CCC(=O)O)NC(=O)[C@H](CO)NC(=O)[C@@H](NC(=O)[C@H](Cc1ccccc1)NC(=O)[C@H](CO)NC(=O)CNC(=O)[C@H](CCC(=O)O)NC(=O)C(C)(C)NC(=O)[C@@H](N)Cc1c[nH]cn1)[C@@H](C)O)[C@@H](C)O)[C@@H](C)CC)C(=O)N[C@@H](C)C(=O)N[C@@H](Cc1c[nH]c2ccccc12)C(=O)N[C@@H](CC(C)C)C(=O)N[C@H](C(=O)N[C@@H](CCC(=O)O)C(=O)N[C@@H](Cc1c[nH]cn1)C(=O)N[C@@H](CCCCN)C(=O)N[C@H](C(=O)N[C@H](C(=O)N[C@@H](CC(=O)O)C(=O)O)[C@@H](C)O)[C@@H](C)CC)[C@@H](C)CC [Compound 5] (HELM PEPTIDE1{H.[Aib].E.G.S.F.T.S.E.L.A.T.I.L.D.K.K.A.A.R.D.F.I.A.W.L.I.E.H.K.I.T.D}|PEPTIDE2{[O=C(O)CCCCCCCCCCCCCCCCC(=O)[*:2]].[gGlu]}$PEPTIDE1,PEPTIDE2,16:R3-2:R2$$$V2.0)	1.35	4.60	A (>90% normalised stability)	A (>90% normalised stability)
